Series [1] in a line: Toxicity against Artemia salina. It is filed as organism-based. Particulars: in vivo.
For series [2], the system named is Bombyx mori. The series can be described thus: Inhibition of leucine uptake in Bombyx mori larval midgut brush border membrane vesicles at 0.2 uM. It is filed as functional.

SMILES strings stand for the structures.

In general, LC50 refers to the concentration that kills 50% of the test population. Read a low LC50 as greater toxicity. One may read the inhibition as the relative decrease from the control value, in per cent. In the case of `C=C(C)c1cc2c(=O)c3c(O)cc4c(c3oc2c2c1C(O)(C(=O)OC)CC2=O)C=CC(C)(C)O4` (configuration not stated) [ARTOINDONESIANIN C], the LC50 in series [1] was above 500 µg/mL. This compound came in with an inhibition in series [2] of 20%.

The values above are taken from ChEMBL document CHEMBL1155678, “Artoindonesianin C, a new xanthone derivative from Artocarpus teysmanii” (J Nat Prod, 2000).
